According to patent publication US10406098B2, “Injection solution comprising a non-nucleoside reverse-transcriptase inhibitor and poly(lactide-co-glycolide)” (Evonik Roehm GmbH, priority 2015, dated 2019):

Test: Release test in phosphate buffer saline pH 7.4 (standard body-fluid single compartment release experiment)
Type: physicochemical
Conditions: PBS pH 7.4, samples at 0, 1, 2, 4, 24 and 96 hours, HPLC; comparative statement
Description: Example Performance in a standard body-fluid single compartment release experiment Release Test: 100 ml of phosphate buffer saline pH 7.4 (PBS, British Pharmacopoeia) are given to a 200 ml volumetric flask. […] PBS-buffer is filled up to 200 ml. API release studies were performed in triplicate. Samples (2 ml) for HPLC analysis were taken at 0, 1, 2, 4, 24 and 96 hours and centrifuged for 5 minutes at 13400 rpm the supernatant was injected according to the HPLC method in Table 5. At 2, 4 and 24 hours 100 ml of the dissolution medium were pulled and 100 ml of fresh buffer was added (PBS 7.4). [table]

release / release rate of the active ingredient: much higher
SMILES: O=C1Nc2ccc(Cl)cc2[C@@](C#CC2CC2)(C(F)(F)F)O1 [Efavirenz]
